Bridge positions count the residues as written; N and C are the ends. Square brackets hold non-standard residues; d marks the D form. Peptide text beside a SMILES is read from it. * marks the point of attachment. ξ: configuration not given here. Bip = N[C@@H](Cc1ccc(-c2ccccc2)cc1)C(=O)O; Phe(3-Me) = Cc1cccc(C[C@H](N)C(=O)O)c1; hArg = N=C(N)NCCCC[C@H](N)C(=O)O; Cha = N[C@@H](CC1CCCCC1)C(=O)O; Cit = NC(=O)NCCC[C@H](N)C(=O)O; aThr = C[C@H](O)[C@H](N)C(=O)O; Thr(3ξ) = CC(O)[C@H](N)C(=O)O; 12Ado = NCCCCCCCCCCCC(=O)O; Carboxymethyl = O=C(O)C*; Orn = NCCC[C@H](N)C(=O)O; Aun = NCCCCCCCCCCC(=O)O; Dab = NCC[C@H](N)C(=O)O; AEEA = NCCOCCOCC(=O)O; Sar = CNCC(=O)O
Molecular target: T1, PD-1/PD-L1 interaction (PE-labeled human PD-L1-Ig binding to Jurkat cell line over-expressing human PD-1) (Homo sapiens, UniProt Q15116)
T1 construct: expressed in transfected cells; host or cells: Jurkat
Experiment: Jurkat-PD-1 Cell Binding High-Content Screening Assay (CBA)
Type: cell-based
Details: Jurkat cell line over-expressing human PD-1; PE-labeled PD-L1-Ig 20 nM final; read-out: Jurkat hPD1-PDL1 IC50
Summary of the method: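 Jurkat cells stably over-expressing human PD-1 were seeded in DMEM with 10% fetal calf serum and pre-incubated with compound for 2 h at 37° C. PE-labeled human PD-L1-Ig was then added at 20 nM final for 1 hour, after which cells were fixed with paraformaldehyde, Hoechst-stained and imaged by high-content microscopy.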

T1 sequence (Q15116 25-288): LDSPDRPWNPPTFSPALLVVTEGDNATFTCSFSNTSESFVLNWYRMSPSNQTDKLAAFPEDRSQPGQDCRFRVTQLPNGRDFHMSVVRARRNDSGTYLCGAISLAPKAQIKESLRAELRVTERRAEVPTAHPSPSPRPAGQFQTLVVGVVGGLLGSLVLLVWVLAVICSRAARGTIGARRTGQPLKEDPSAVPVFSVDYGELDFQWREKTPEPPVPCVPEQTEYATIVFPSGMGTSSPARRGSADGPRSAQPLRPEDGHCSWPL

| IC50 | SMILES |
| --- | --- |
| 8.1 nM | Cc1cccc(C[C@@H]2NC(=O)[C@H](CC(=O)O)NC(=O)[C@H](Cc3ccc(OCC(=O)O)cc3)NC(=O)[C@H](CCCNC(=N)N)NC(=O)CSC[C@@H](C(=O)N[C@@H](CCN)C(=O)NCCCCCCCCCCC(=O)O)NC(=O)[C@H](C(C)O)NC(=O)[C@H](C(C)C)NC(=O)[C@H](CC3CCCCC3)NC(=O)[C@H](CCN)NC(=O)[C@@H](CC(C)C)NC(=O)[C@H](CCCN)NC(=O)[C@H](CCC(N)=O)NC(=O)[C@H](Cc3ccc(-c4ccccc4)cc3)NC(=O)[C@H](C(C)C)NC2=O)c1 (stereo partly drawn) [Compound 3355] ({CH2CO}-RY(Carboxymethyl)D[Phe(3-Me)]V[Bip]Q[Orn][dL][Dab][Cha]V[Thr(3ξ)]C[Dab][Aun]-OH; thioether N-14) |
| 6.8 nM | Cc1cccc(C[C@@H]2NC(=O)[C@H](CC(=O)O)NC(=O)[C@H](Cc3ccc(OCC(=O)O)cc3)NC(=O)[C@H](CCCNC(=N)N)NC(=O)CSC[C@@H](C(=O)N[C@@H](CCN)C(=O)NCCCCCCCCCCC(=O)O)NC(=O)[C@H](CCCN)NC(=O)[C@H](C(C)C)NC(=O)[C@H](CC3CCCCC3)NC(=O)[C@H](CCN)NC(=O)[C@@H](CC(C)C)NC(=O)[C@H](CCCN)NC(=O)[C@H](CCC(N)=O)NC(=O)[C@H](Cc3ccc(-c4ccccc4)cc3)NC(=O)[C@H](C(C)C)NC2=O)c1 [Compound 3356] ({CH2CO}-RY(Carboxymethyl)D[Phe(3-Me)]V[Bip]Q[Orn][dL][Dab][Cha]V[Orn]C[Dab][Aun]-OH; thioether N-14) |
| 4.3 nM | Cc1cccc(C[C@@H]2NC(=O)[C@H](CC(=O)O)NC(=O)[C@H](Cc3ccc(OCC(=O)O)cc3)NC(=O)[C@H](CCCCNC(=N)N)NC(=O)CSC[C@@H](C(=O)N[C@@H](CCN)C(=O)NCCCCCCCCCCC(=O)O)NC(=O)[C@H](CCCN)NC(=O)[C@H](C(C)C)NC(=O)[C@H](CC3CCCCC3)NC(=O)[C@H](CCN)NC(=O)[C@@H](CC(C)C)NC(=O)[C@H](CCN)NC(=O)[C@H](CCC(N)=O)NC(=O)[C@H](Cc3ccc(-c4ccccc4)cc3)NC(=O)[C@H](C(C)C)NC2=O)c1 [Compound 3359] ({CH2CO}-[hArg]Y(Carboxymethyl)D[Phe(3-Me)]V[Bip]Q[Dab][dL][Dab][Cha]V[Orn]C[Dab][Aun]-OH; thioether N-14) |
| 8.1 nM | Cc1cccc(C[C@@H]2NC(=O)[C@H](CC(=O)O)NC(=O)[C@H](Cc3ccc(OCC(=O)O)cc3)NC(=O)[C@H](CCCNC(=N)N)NC(=O)CSC[C@@H](C(=O)N[C@@H](CCN)C(=O)NCCCCCCCCCCC(=O)O)NC(=O)[C@H](CCCNC(N)=O)NC(=O)[C@H](C(C)C)NC(=O)[C@H](CC3CCCCC3)NC(=O)[C@H](CCN)NC(=O)[C@@H](CC(C)C)NC(=O)[C@H](CCN)NC(=O)[C@H](C(C)C)NC(=O)[C@H](Cc3ccc(-c4ccccc4)cc3)NC(=O)[C@H](C(C)C)NC2=O)c1 [Compound 3360] ({CH2CO}-RY(Carboxymethyl)D[Phe(3-Me)]V[Bip]V[Dab][dL][Dab][Cha]V[Cit]C[Dab][Aun]-OH; thioether N-14) |
| 18.7 nM | CC(C)C[C@H]1NC(=O)[C@H](CCCN)NC(=O)[C@H](C(C)C)NC(=O)[C@H](Cc2ccc(-c3ccccc3)cc2)NC(=O)[C@H](C(C)C)NC(=O)[C@H](Cc2c[nH]c3ccccc23)NC(=O)[C@H](CC(=O)O)NC(=O)[C@H](Cc2ccc(OCC(=O)O)cc2)NC(=O)[C@H](CCCCNC(=N)N)NC(=O)CSC[C@@H](C(=O)N(C)CC(=O)NCCOCCOCC(=O)N[C@@H](CCCN)C(=O)NCCCCCCCCCCCC(=O)O)NC(=O)[C@H](CO)NC(=O)[C@H](C(C)C)NC(=O)[C@H](CC2CCCCC2)NC(=O)[C@H](CCN)NC1=O [Compound 3361] ({CH2CO}-[hArg]Y(Carboxymethyl)DWV[Bip]V[Orn][dL][Dab][Cha]VSC[Sar][AEEA][Orn][12Ado]-OH; thioether N-14) |
| 12.6 nM | Cc1cccc(C[C@@H]2NC(=O)[C@H](CC(=O)O)NC(=O)[C@H](Cc3ccc(OCC(=O)O)cc3)NC(=O)[C@H](CCCNC(=N)N)NC(=O)CSC[C@@H](C(=O)N[C@@H](CCN)C(=O)NCCCCCCCCCCC(=O)O)NC(=O)[C@H](C(C)O)NC(=O)[C@H](C(C)C)NC(=O)[C@H](CC3CCCCC3)NC(=O)[C@H](CCN)NC(=O)[C@@H](CC(C)C)NC(=O)[C@H](CCC(N)=O)NC(=O)[C@H](Cc3ccc(O)cc3)NC(=O)[C@H](Cc3ccc(-c4ccccc4)cc3)NC(=O)[C@H](Cc3ccc(O)cc3)NC2=O)c1 (stereo partly drawn) [Compound 3370] ({CH2CO}-RY(Carboxymethyl)D[Phe(3-Me)]Y[Bip]YQ[dL][Dab][Cha]V[Thr(3ξ)]C[Dab][Aun]-OH; thioether N-14) |
| 9.4 nM | Cc1cccc(C[C@@H]2NC(=O)[C@H](CC(=O)O)NC(=O)[C@H](Cc3ccc(OCC(=O)O)cc3)NC(=O)[C@H](CCCNC(=N)N)NC(=O)CSC[C@@H](C(=O)N[C@@H](CCN)C(=O)NCCCCCCCCCCC(=O)O)NC(=O)[C@H](C(C)O)NC(=O)[C@H](C(C)C)NC(=O)[C@H](CC3CCCCC3)NC(=O)[C@H](CCN)NC(=O)[C@@H](CC(C)C)NC(=O)[C@H](CCCNC(N)=O)NC(=O)[C@H](Cc3ccc(OCC(=O)O)cc3)NC(=O)[C@H](Cc3ccc(-c4ccccc4)cc3)NC(=O)[C@H](Cc3ccc(O)cc3)NC2=O)c1 (stereo partly drawn) [Compound 3371] ({CH2CO}-RY(Carboxymethyl)D[Phe(3-Me)]Y[Bip]Y(Carboxymethyl)[Cit][dL][Dab][Cha]V[Thr(3ξ)]C[Dab][Aun]-OH; thioether N-14) |
| 11.6 nM | Cc1cccc(C[C@@H]2NC(=O)[C@H](CC(=O)O)NC(=O)[C@H](Cc3ccc(OCC(=O)O)cc3)NC(=O)[C@H](CCCNC(=N)N)NC(=O)CSC[C@@H](C(=O)N[C@@H](CCN)C(=O)NCCCCCCCCCCC(=O)O)NC(=O)[C@H](CCCNC(N)=O)NC(=O)[C@H](C(C)C)NC(=O)[C@H](CC3CCCCC3)NC(=O)[C@H](CCN)NC(=O)[C@@H](CC(C)C)NC(=O)[C@H](CCC(N)=O)NC(=O)[C@H](Cc3ccc(OCC(=O)O)cc3)NC(=O)[C@H](Cc3ccc(-c4ccccc4)cc3)NC(=O)[C@H](CC(C)C)NC2=O)c1 [Compound 3372] ({CH2CO}-RY(Carboxymethyl)D[Phe(3-Me)]L[Bip]Y(Carboxymethyl)Q[dL][Dab][Cha]V[Cit]C[Dab][Aun]-OH; thioether N-14) |
| 27.4 nM | Cc1cccc(C[C@@H]2NC(=O)[C@H](CC(=O)O)NC(=O)[C@H](Cc3ccc(OCC(=O)O)cc3)NC(=O)[C@H](CCCNC(=N)N)NC(=O)CSC[C@@H](C(=O)N[C@@H](CCN)C(=O)NCCCCCCCCCCC(=O)O)NC(=O)[C@H](C(C)O)NC(=O)[C@H](C(C)C)NC(=O)[C@H](CC3CCCCC3)NC(=O)[C@H](CCN)NC(=O)[C@@H](CC(C)C)NC(=O)[C@H](CCC(=O)O)NC(=O)[C@H](Cc3ccc(O)cc3)NC(=O)[C@H](Cc3ccc(-c4ccccc4)cc3)NC(=O)[C@H](Cc3ccc(O)cc3)NC2=O)c1 (stereo partly drawn) [Compound 3373] ({CH2CO}-RY(Carboxymethyl)D[Phe(3-Me)]Y[Bip]YE[dL][Dab][Cha]V[Thr(3ξ)]C[Dab][Aun]-OH; thioether N-14) |
| 31.6 nM | Cc1cccc(C[C@@H]2NC(=O)[C@H](CC(=O)O)NC(=O)[C@H](Cc3ccc(OCC(=O)O)cc3)NC(=O)[C@H](CC(N)=O)NC(=O)CSC[C@@H](C(=O)N[C@@H](CCN)C(=O)NCCCCCCCCCCC(=O)O)NC(=O)[C@H](C(C)O)NC(=O)[C@H](C(C)C)NC(=O)[C@H](CC3CCCCC3)NC(=O)[C@H](CCN)NC(=O)[C@@H](CC(C)C)NC(=O)[C@H](CCN)NC(=O)[C@H](Cc3ccc(O)cc3)NC(=O)[C@H](Cc3ccc(-c4ccccc4)cc3)NC(=O)[C@H](CC(C)C)NC2=O)c1 (stereo partly drawn) [Compound 3374] ({CH2CO}-NY(Carboxymethyl)D[Phe(3-Me)]L[Bip]Y[Dab][dL][Dab][Cha]V[Thr(3ξ)]C[Dab][Aun]-OH; thioether N-14) |
| 12.3 nM | Cc1cccc(C[C@@H]2NC(=O)[C@H](CC(=O)O)NC(=O)[C@H](Cc3ccc(OCC(=O)O)cc3)NC(=O)[C@H](CC(N)=O)NC(=O)CSC[C@@H](C(=O)NCCCCCCCCCCC(=O)O)NC(=O)[C@H](CCC(=O)O)NC(=O)[C@H](C(C)C)NC(=O)[C@H](CC3CCCCC3)NC(=O)[C@H](CCN)NC(=O)[C@@H](CC(C)C)NC(=O)[C@H](CCCN)NC(=O)[C@H](Cc3ccc(O)cc3)NC(=O)[C@H](Cc3ccc(-c4ccccc4)cc3)NC(=O)[C@H](C(C)C)NC2=O)c1 [Compound 3375] ({CH2CO}-NY(Carboxymethyl)D[Phe(3-Me)]V[Bip]Y[Orn][dL][Dab][Cha]VEC[Aun]-OH; thioether N-14) |
| 14.8 nM | Cc1cccc(C[C@@H]2NC(=O)[C@H](CC(=O)O)NC(=O)[C@H](Cc3ccc(OCC(=O)O)cc3)NC(=O)[C@H](CC(N)=O)NC(=O)CSC[C@@H](C(=O)N[C@@H](CCC(=O)O)C(=O)NCCCCCCCCCCC(=O)O)NC(=O)[C@H]([C@H](C)O)NC(=O)[C@H](C(C)C)NC(=O)[C@H](CC3CCCCC3)NC(=O)[C@H](CCN)NC(=O)[C@@H](CC(C)C)NC(=O)[C@H](CCCN)NC(=O)[C@H](Cc3ccc(O)cc3)NC(=O)[C@H](Cc3ccc(-c4ccccc4)cc3)NC(=O)[C@H](C(C)C)NC2=O)c1 [Compound 3376] ({CH2CO}-NY(Carboxymethyl)D[Phe(3-Me)]V[Bip]Y[Orn][dL][Dab][Cha]V[aThr]CE[Aun]-OH; thioether N-14) |
| 13.5 nM | Cc1cccc(C[C@@H]2NC(=O)[C@H](CC(=O)O)NC(=O)[C@H](Cc3ccc(OCC(=O)O)cc3)NC(=O)[C@H](CC(N)=O)NC(=O)CSC[C@@H](C(=O)N[C@@H](CCN)C(=O)NCCCCCCCCCCC(=O)O)NC(=O)[C@H]([C@H](C)O)NC(=O)[C@H](C(C)C)NC(=O)[C@H](CC3CCCCC3)NC(=O)[C@H](CCN)NC(=O)[C@@H](CC(C)C)NC(=O)[C@H](CCCN)NC(=O)[C@H](Cc3ccc(O)cc3)NC(=O)[C@H](Cc3ccc(-c4ccccc4)cc3)NC(=O)[C@H](C(C)C)NC2=O)c1 [Compound 3377] ({CH2CO}-NY(Carboxymethyl)D[Phe(3-Me)]V[Bip]Y[Orn][dL][Dab][Cha]V[aThr]C[Dab][Aun]-OH; thioether N-14) |

Source: patent US20260022142A1, “MACROCYCLIC IMMUNOMODULATORS” (Bristol-Myers Squibb Company, priority 2022, published 2026)
